Values quoted from earlier work, collected in US6699676B1, “Uses of ouabain and ouabain-like molecules in apoptosis related pathologies” (Corporation du Centre de Recherche du Centre, Hospitalier …, priority 1999, dated 2004).

Tested on: VSMC
Details: moderate elevation of [Ca2+]i, reference (37); cited from earlier work

Row | Structure (SMILES) | effect on VSMC apoptosis
1 | C[C@H](CCC(=O)O)C[C@H](C)C[C@H](C)C(=O)/C=C(\O)[C@H](C)C[C@H](C)C/C=C/[C@@H](C)[C@@H](O)[C@@H](C)[C@@H](O)C[C@@H]1CC[C@@](C)([C@H]2CC[C@@](C)([C@@H](C)O)O2)O1 [ionomycin] | did not observe any effect
2 | C/C=C(/C)C(=O)O[C@H]1C(C)=C2[C@H]([C@@H]1OC(=O)CCCCCCC)[C@@](C)(OC(C)=O)C[C@H](OC(=O)CCC)[C@@]1(O)[C@H]2OC(=O)[C@@]1(C)O [thapsigargin] | did not observe any effect
